Test results as given in ChEMBL document CHEMBL1138190, “Synthesis and antibacterial activity of novel C12 vinyl ketolides” (J Med Chem, 2006).
≈ marks a conversion by molar mass, not a printed value.

How the values were obtained:
Assay type in all cases: functional
Haemophilus influenzae [1] = assay: Antibacterial activity against Haemophilus influenzae 2762
Staphylococcus aureus [2] = assay: Antibacterial activity against Staphylococcus aureus 29213
Staphylococcus aureus [3] = assay: Antibacterial activity against Staphylococcus aureus 33591
[4] = tested on: Staphylococcus epidermidis; assay: Antibacterial activity against Staphylococcus epidermidis 14990
[5] = tested on: Staphylococcus epidermidis; assay: Antibacterial activity against Staphylococcus epidermidis f50654
Enterococcus faecalis [6] = assay: Antibacterial activity against Enterococcus faecalis 29212
Enterococcus faecalis [7] = assay: Antibacterial activity against Enterococcus faecalis bc11148-2
Streptococcus pyogenes = assay: Antibacterial activity against Streptococcus pyogenes 8668
Streptococcus pneumoniae [8] = assay: Antibacterial activity against Streptococcus pneumoniae 49619
Streptococcus pneumoniae [9] = assay: Antibacterial activity against Streptococcus pneumoniae 297-749
Streptococcus pneumoniae [10] = assay: Antibacterial activity against Streptococcus pneumoniae 280-962
Streptococcus pneumoniae [11] = assay: Antibacterial activity against Streptococcus pneumoniae Erm 6849
Streptococcus pneumoniae [12] = assay: Antibacterial activity against Streptococcus pneumoniae Mef 5654
Streptococcus pneumoniae [13] = assay: Antibacterial activity against Streptococcus pneumoniae Mef S 3427
Haemophilus influenzae [14] = assay: Antibacterial activity against Haemophilus influenzae 49247

Row | Structure (SMILES) | MIC (Haemophilus influenzae [1]) | MIC (Staphylococcus aureus [2]) | MIC (Staphylococcus aureus [3]) | MIC [4] | MIC [5] | MIC (Enterococcus faecalis [6]) | MIC (Enterococcus faecalis [7]) | MIC (Streptococcus pyogenes) | MIC (Streptococcus pneumoniae [8]) | MIC (Streptococcus pneumoniae [9]) | MIC (Streptococcus pneumoniae [10]) | MIC (Streptococcus pneumoniae [11]) | MIC (Streptococcus pneumoniae [12]) | MIC (Streptococcus pneumoniae [13]) | MIC (Haemophilus influenzae [14])
1 | C=C[C@]12OC(=O)N(CCCCc3ccc(-c4cccnc4)s3)[C@@H]1[C@@H](C)C(=O)[C@H](C)C[C@@](C)(OC)[C@H](O[C@@H]1O[C@H](C)C[C@H](N(C)C)[C@H]1O)[C@@H](C)C(=O)[C@@H](C)C(=O)O[C@@H]2CC | 3.13 mg/L (≈ 3.73 µM) | 0.2 mg/L (≈ 0.238 µM) | 12.5 mg/L (≈ 14.9 µM) | 0.2 mg/L (≈ 0.238 µM) | 0.2 mg/L (≈ 0.238 µM) | 0.1 mg/L (≈ 0.119 µM) | 3.13 mg/L (≈ 3.73 µM) | 0.1 mg/L (≈ 0.119 µM) | ≤ 0.05 mg/L | ≤ 0.05 mg/L | ≤ 0.05 mg/L | 3.13 mg/L (≈ 3.73 µM) | 0.78 mg/L (≈ 0.928 µM) | 0.2 mg/L (≈ 0.238 µM) | 3.13 mg/L (≈ 3.73 µM)
2 | C=C[C@]12OC(=O)N(CCN(C)Cc3ccc(-c4cccnc4)s3)[C@@H]1[C@@H](C)C(=O)[C@H](C)C[C@@](C)(OC)[C@H](O[C@@H]1O[C@H](C)C[C@H](N(C)C)[C@H]1O)[C@@H](C)C(=O)[C@@H](C)C(=O)O[C@@H]2CC | 3.13 mg/L (≈ 3.66 µM) | 0.2 mg/L (≈ 0.234 µM) | > 50 mg/L | 0.1 mg/L (≈ 0.117 µM) | 0.2 mg/L (≈ 0.234 µM) | 0.1 mg/L (≈ 0.117 µM) | 0.4 mg/L (≈ 0.468 µM) | ≤ 0.05 mg/L | ≤ 0.05 mg/L | ≤ 0.05 mg/L | ≤ 0.05 mg/L | 0.2 mg/L (≈ 0.234 µM) | 0.78 mg/L (≈ 0.912 µM) | 0.1 mg/L (≈ 0.117 µM) | 6.25 mg/L (≈ 7.31 µM)
3 | C=C[C@]12OC(=O)N(CCCCn3cnc(-c4cnc(OC)nc4)c3)[C@@H]1[C@@H](C)C(=O)[C@H](C)C[C@@](C)(OC)[C@H](O[C@@H]1O[C@H](C)C[C@H](N(C)C)[C@H]1O)[C@@H](C)C(=O)[C@@H](C)C(=O)O[C@@H]2CC | 0.78 mg/L (≈ 0.912 µM) | 0.1 mg/L (≈ 0.117 µM) | > 50 mg/L | 0.1 mg/L (≈ 0.117 µM) | 0.1 mg/L (≈ 0.117 µM) | ≤ 0.05 mg/L | 0.4 mg/L (≈ 0.468 µM) | ≤ 0.05 mg/L | ≤ 0.05 mg/L | ≤ 0.05 mg/L | ≤ 0.05 mg/L | 0.4 mg/L (≈ 0.468 µM) | 0.78 mg/L (≈ 0.912 µM) | 0.2 mg/L (≈ 0.234 µM) | 6.25 mg/L (≈ 7.31 µM)
4 | C=C[C@]12OC(=O)N(CCCCn3cc(Cl)c4ncccc43)[C@@H]1[C@@H](C)C(=O)[C@H](C)C[C@@](C)(OC)[C@H](O[C@@H]1O[C@H](C)C[C@H](N(C)C)[C@H]1O)[C@@H](C)C(=O)[C@@H](C)C(=O)O[C@@H]2CC | 0.78 mg/L (≈ 0.938 µM) | 0.2 mg/L (≈ 0.241 µM) | > 50 mg/L | 0.1 mg/L (≈ 0.12 µM) | 0.1 mg/L (≈ 0.12 µM) | 0.1 mg/L (≈ 0.12 µM) | 1.56 mg/L (≈ 1.88 µM) | ≤ 0.05 mg/L | ≤ 0.05 mg/L | ≤ 0.05 mg/L | ≤ 0.05 mg/L | 3.13 mg/L (≈ 3.76 µM) | 0.78 mg/L (≈ 0.938 µM) | 0.1 mg/L (≈ 0.12 µM) | 3.13 mg/L (≈ 3.76 µM)
5 | C=C[C@]12OC(=O)N(CCCCn3cnc4cccnc43)[C@@H]1[C@@H](C)C(=O)[C@H](C)C[C@@](C)(OC)[C@H](O[C@@H]1O[C@H](C)C[C@H](N(C)C)[C@H]1O)[C@@H](C)C(=O)[C@@H](C)C(=O)O[C@@H]2CC | 0.78 mg/L (≈ 0.977 µM) | 0.2 mg/L (≈ 0.251 µM) | > 50 mg/L | 0.1 mg/L (≈ 0.125 µM) | 0.2 mg/L (≈ 0.251 µM) | 0.1 mg/L (≈ 0.125 µM) | 0.78 mg/L (≈ 0.977 µM) | ≤ 0.05 mg/L | ≤ 0.05 mg/L | ≤ 0.05 mg/L | ≤ 0.05 mg/L | 12.5 mg/L (≈ 15.7 µM) | 0.78 mg/L (≈ 0.977 µM) | 0.1 mg/L (≈ 0.125 µM) | 1.56 mg/L (≈ 1.95 µM)
6 | C=C[C@]12OC(=O)N(CCCCn3cnc(-c4ccc(O)nc4)c3)[C@@H]1[C@@H](C)C(=O)[C@H](C)C[C@@](C)(OC)[C@H](O[C@@H]1O[C@H](C)C[C@H](N(C)C)[C@H]1O)[C@@H](C)C(=O)[C@@H](C)C(=O)O[C@@H]2CC | 1.56 mg/L (≈ 1.86 µM) | 0.4 mg/L (≈ 0.476 µM) | > 50 mg/L | 0.2 mg/L (≈ 0.238 µM) | 0.2 mg/L (≈ 0.238 µM) | 0.2 mg/L (≈ 0.238 µM) | 3.13 mg/L (≈ 3.73 µM) | ≤ 0.05 mg/L | ≤ 0.05 mg/L | ≤ 0.05 mg/L | ≤ 0.05 mg/L | 12.5 mg/L (≈ 14.9 µM) | 3.13 mg/L (≈ 3.73 µM) | 1.56 mg/L (≈ 1.86 µM) | 6.25 mg/L (≈ 7.44 µM)
